Test results reported in article PMC9551036, “A selective and orally bioavailable VHL-recruiting PROTAC achieves SMARCA2 degradation in vivo” (Nature Communications, 2022).
Where “and” joins values, the source holds several entries; their conditions need not be identical. Equal entries are not always repeated. Where two headings read alike, the source gives them in different places.

Assays:
NCI-H1568 cells = experiment: Cell viability assay (CellTiter Glo) in NCI-H1568; assay type: cell-based, human; conditions: for EC50: read-out: EC50 cell proliferation (CellTiter Glo); for IC50: NCI-H1568, (18h), CellTiter Glo, individual replicates, read-out: NCI-H1568 (18h) CTG
Procedure: 500–2000 cells were seeded in white, clear bottom 96-well plates (Corning or Perkin Elmer) in 180–200 µl medium per well. The next day, compounds were added using a digital dispenser and a T0 sample was measured for reference. […], and viability (luminescence) was measured using CellTiter Glo or CellTiter Glo 2.0 (Promega) according to manufacturer’s instructions after equilibrating cells and reagents at room temperature and 10–20 min incubation time while shaking.

PBRM1 BD = biological target: T1, PBRM1 BD (Homo sapiens, UniProt Q86U86); experiment: TR-FRET binary and ternary (PROTAC + VCB) affinity, PBRM1 bromodomain; assay type: binding; conditions: individual replicates
T1 construct: GST (TEV site) (N); made in house; host or cells: Escherichia coli BL21(DE3)

PBRM1BD5 = biological target: T2, PBRM1BD5 (Homo sapiens, UniProt Q86U86); experiment: TR-FRET ternary complex affinity and cooperativity, PBRM1; assay type: binding; conditions: TR-FRET competition for PBRM1BD5, without VCB; mean ± SD; read-out: TR-FRET PBRM1BD EC50
T2 construct: GST (TEV site) (N); His6 (TEV site) (N, cleaved yes); made in house; host or cells: PBRM1^BD5: Escherichia coli BL21(DE3)

SMARCA2 [1] = biological target: T3, SMARCA2 (Homo sapiens, UniProt P51531); experiment: SMARCA2 capillary electrophoresis protein assay in RKO cells; assay type: cell-based; design: endogenous in cells; host or cells: RKO, NCI-H1568, A549, HCT116, LU99, HCC-364, HCT-15, HCC4006, SK-N-AS; conditions: mean ± SD
Procedure: 130,000–200,000 cells were seeded in 24-well plates and incubated until settled down or overnight. Compounds were dissolved in DMSO and added to cells in indicated concentrations using a digital dispenser following an optional media change. […] For SMARCA2/4 half-life determination, 150,000 or 200,000 cells were seeded in 24-well plates. […] For SMARCA2/4 re-synthesis measurements, 200,000 cells were seeded in 24-well plates. […] Medium was removed, cells were washed with PBS and lysed with 80 µl Lysis Buffer (MSD Tris Lysis Buffer (#R60TX-2) + Halt Inhibitor Cocktail (100x) + Benzonase 0.5 µL/ml). Samples were frozen at −80 °C and thawed at room temperature before use. Samples were transferred to a V-bottom plate and insoluble debris was pelleted by centrifugation for 5 min at maximum speed. The supernatant was transferred to a fresh plate. Master Mix and Ladder were prepared according to manufacturer’s instructions for 12–230 kDa Wes Separation Module, 8 × 25 capillary cartridges, Protein Simple #SM-W004 with Anti-Rabbit Detection Module for Wes, Peggy Sue or Sally Sue, Protein Simple #DM-001. 4.8 µl lysate were mixed with 1.2 µl Master Mix to achieve a protein concentration of ~0.5 µg/µl. […] Wes plates were prepared and run according to manufacturer’s instructions. Proteins were quantified with accompanying Compass Software. SMARCA2/4 protein levels were normalised to GAPDH. […] Where applicable, curves were fitted using a 4-parametric logistic model.

SMARCA2 [2] = biological target: T3, SMARCA2; experiment: Imaging-based SMARCA2 protein assay in RKO cells; assay type: cell-based; design: endogenous in cells; host or cells: RKO, NCI-H1568, A549, HCT116, LU99, HCC-364, HCT-15, HCC4006, SK-N-AS; conditions: individual replicates
Procedure: 1250 cells per well in 60 µl medium were plated in flat bottom, poly-lysin coated 384-well plates (CellCarrier Ultra, Perkin Elmer). The next day, test compounds (10 µl of serial dilutions) and DMSO controls were diluted in DMEM medium such that the final DMSO content was <1% or were added using an ultrasound dispensing system. 4 wells were reserved for a background measurement. […] After aspirating the fixing solution, the cells were washed once with 25 µl PBS. 25 µl of blocking buffer (10% goat serum in PBS) was added and cells were incubated for 30 min, then washed once with PBS. […] Cells were again washed once with PBS. […] The cell layer was then washed once with 25 µl PBS, the wells were filled with 25 µl PBS and the plates were sealed with an adhesive sheet. They were then imaged on the Opera Phoenix (mean intensity in the nucleus). […] EC50 values were computed using a 4-parametric logistic model.

[3] = biological target: VCB: PROTAC: SMARCA2^BD ternary complex (Homo sapiens, UniProt P40337+P51531); experiment: TR-FRET ternary complex affinity and cooperativity, SMARCA2; assay type: binding; design: P51531-2, residues 1373-1493 with additional N-terminal SM residues; GST (TEV site) (N); His6 (TEV site) (N, cleaved yes); made in house; host or cells: SMARCA2^BD: Escherichia coli BL21(DE3)
[4] = PROTAC + VCB, read-out: Ternary PBRM1 BD EC50 (PROTAC + VCB)
[5] = binary, PROTAC alone, read-out: PBRM1 EC50
[6] = 4h, read-out: RKO (4h) SMARCA2 DC50
[7] = 18h, read-out: RKO (18h) SMARCA2 DC50
[8] = PROTAC + VCB, individual replicates, read-out: Ternary SMARCA2 BD EC50 (PROTAC + VCB)
[9] = TR-FRET competition for SMARCA2BD, + VCB, mean ± SD, read-out: TR-FRET Ternary SMARCA2BD EC50 (PROTAC + VCB)

T2 sequence (Q86U86 645-766): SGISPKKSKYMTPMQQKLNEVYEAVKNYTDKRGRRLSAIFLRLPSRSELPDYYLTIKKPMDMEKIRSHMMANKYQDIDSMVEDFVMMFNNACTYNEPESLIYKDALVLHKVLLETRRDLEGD
VCB: PROTAC: SMARCA2^BD ternary complex, sequence (P51531 with tags, fused parts or gaps isoform P51531-2): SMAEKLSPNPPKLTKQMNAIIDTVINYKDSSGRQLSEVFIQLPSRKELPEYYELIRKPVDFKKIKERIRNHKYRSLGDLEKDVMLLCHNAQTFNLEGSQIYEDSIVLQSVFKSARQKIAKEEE
VCB: PROTAC: SMARCA2^BD ternary complex, sequence (P40337 54-213): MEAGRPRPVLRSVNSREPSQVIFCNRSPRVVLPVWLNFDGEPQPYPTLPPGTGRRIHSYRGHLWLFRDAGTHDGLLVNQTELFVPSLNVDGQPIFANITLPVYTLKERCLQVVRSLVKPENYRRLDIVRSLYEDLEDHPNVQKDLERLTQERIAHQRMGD
VCB: PROTAC: SMARCA2^BD ternary complex, sequence (Q15369 17-112 partner): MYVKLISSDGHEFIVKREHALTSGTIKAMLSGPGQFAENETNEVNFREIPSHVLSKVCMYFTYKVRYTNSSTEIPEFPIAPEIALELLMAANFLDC
VCB: PROTAC: SMARCA2^BD ternary complex, sequence (Q15370 1-104 partner): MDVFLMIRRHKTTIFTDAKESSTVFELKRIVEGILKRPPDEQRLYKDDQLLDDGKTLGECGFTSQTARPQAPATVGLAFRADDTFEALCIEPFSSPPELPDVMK
T3 sequence (P51531 whole entry): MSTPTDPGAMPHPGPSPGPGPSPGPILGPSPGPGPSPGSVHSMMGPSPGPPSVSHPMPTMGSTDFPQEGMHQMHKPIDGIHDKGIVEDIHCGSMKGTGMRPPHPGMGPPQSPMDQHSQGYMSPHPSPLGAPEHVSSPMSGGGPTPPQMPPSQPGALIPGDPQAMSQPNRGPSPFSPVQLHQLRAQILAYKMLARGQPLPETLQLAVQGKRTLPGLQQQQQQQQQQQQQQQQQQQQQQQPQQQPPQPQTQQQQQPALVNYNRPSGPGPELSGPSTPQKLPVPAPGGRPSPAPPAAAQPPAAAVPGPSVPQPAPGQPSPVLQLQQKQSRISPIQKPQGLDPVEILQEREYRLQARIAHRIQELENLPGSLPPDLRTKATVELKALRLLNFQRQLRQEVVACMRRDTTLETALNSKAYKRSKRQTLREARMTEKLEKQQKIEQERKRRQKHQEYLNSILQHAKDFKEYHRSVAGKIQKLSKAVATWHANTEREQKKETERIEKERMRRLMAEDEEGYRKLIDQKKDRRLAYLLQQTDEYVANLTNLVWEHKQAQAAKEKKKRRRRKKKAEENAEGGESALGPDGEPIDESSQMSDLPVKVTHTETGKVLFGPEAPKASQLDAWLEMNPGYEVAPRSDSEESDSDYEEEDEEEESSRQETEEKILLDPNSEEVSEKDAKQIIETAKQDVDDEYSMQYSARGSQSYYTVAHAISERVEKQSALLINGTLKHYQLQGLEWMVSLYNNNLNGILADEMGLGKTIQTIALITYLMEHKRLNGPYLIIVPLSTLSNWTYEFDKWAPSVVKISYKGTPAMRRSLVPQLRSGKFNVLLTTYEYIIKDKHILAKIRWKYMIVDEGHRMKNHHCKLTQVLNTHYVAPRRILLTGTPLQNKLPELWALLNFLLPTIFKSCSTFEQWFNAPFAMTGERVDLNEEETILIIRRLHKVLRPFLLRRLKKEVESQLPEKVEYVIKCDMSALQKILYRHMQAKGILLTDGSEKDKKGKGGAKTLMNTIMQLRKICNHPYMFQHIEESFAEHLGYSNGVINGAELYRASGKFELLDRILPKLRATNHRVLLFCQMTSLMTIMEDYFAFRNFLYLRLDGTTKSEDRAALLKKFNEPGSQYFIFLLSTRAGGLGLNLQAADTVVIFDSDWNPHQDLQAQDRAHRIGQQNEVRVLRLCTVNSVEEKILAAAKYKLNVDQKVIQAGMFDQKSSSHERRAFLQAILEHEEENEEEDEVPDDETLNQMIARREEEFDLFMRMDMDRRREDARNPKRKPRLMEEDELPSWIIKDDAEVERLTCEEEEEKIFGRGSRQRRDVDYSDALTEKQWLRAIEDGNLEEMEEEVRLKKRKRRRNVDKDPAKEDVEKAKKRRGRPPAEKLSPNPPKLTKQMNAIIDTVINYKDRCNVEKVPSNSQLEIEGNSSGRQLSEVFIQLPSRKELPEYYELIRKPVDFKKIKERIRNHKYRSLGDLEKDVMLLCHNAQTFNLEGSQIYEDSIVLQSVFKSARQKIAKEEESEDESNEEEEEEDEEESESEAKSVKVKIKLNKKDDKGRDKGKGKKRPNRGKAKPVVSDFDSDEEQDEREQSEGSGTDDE

| SMILES | EC50 (NCI-H1568 cells; NCI-H1568 ([…]), mean ± SD) | IC50 (NCI-H1568 cells) | EC50 (PBRM1 BD; [4]) | EC50 (PBRM1 BD; [5]) | EC50 (PBRM1BD5) | DC50 (SMARCA2 [1]; RKO (4 h)) | DC50 (SMARCA2 [1]; RKO (18 h)) | DC50 (SMARCA2 [2]; [6]) | DC50 (SMARCA2 [2]; [7]) | EC50 [3, 8] | EC50 (NCI-H1568 cells; Homo sapiens, NCI-H1568, […]) | EC50 [3, 9] | SMARCA2 Dmax (SMARCA2 [1]; RKO (4 h)) | SMARCA2 Dmax (SMARCA2 [1]; RKO (18 h)) |
| --- | --- | --- | --- | --- | --- | --- | --- | --- | --- | --- | --- | --- | --- | --- |
| CN1CCN(c2nc(=O)c3c(Cl)cccc3o2)CC1 [compound 13] | > 10000 nM | > 10000 nM | > 10000 nM | > 10000 nM | > 10000 nM | > 25000 nM | > 25000 nM | > 25000 nM | > 25000 nM | > 10000 nM | – | – | – | – |
| CN1CCC(c2ccc3c(c2)n(C2CCCC2)c2nc(=O)c4c(Br)cccc4n32)CC1 [compound 3] | – | – | 49.4 nM and 29.7 nM (2×) and 21.8 nM and 18 nM and 21.3 nM and 22.2 nM and 18.6 nM and 21.6 nM and 46 nM and 35.8 nM and 25 nM and 35.5 nM (2×) and 36.4 nM and 29.1 nM and 25.9 nM and 29.2 nM and 27.1 nM and 30.4 nM (2×) and 31.6 nM and 33.5 nM and 23 nM (2×) and 29.5 nM and 54.4 nM and 51.5 nM and 24 nM and 36.6 nM and 32.2 nM and 65.8 nM and 63.7 nM and 42.6 nM and 25.7 nM and 43.8 nM and 40.2 nM and 16.5 nM and 24.8 nM and 34.1 nM and 26.1 nM and 30.2 nM | 27.3 nM and 29.3 nM and 18.1 nM and 21.5 nM and 21.7 nM and 19.9 nM and 23.1 nM and 18.9 nM and 42.5 nM and 22.4 nM and 27 nM and 28.2 nM and 20.7 nM and 30.6 nM and 34 nM (3×) and 32.6 nM and 30.2 nM and 34.7 nM and 36.6 nM and 33.4 nM and 20.8 nM and 53.5 nM and 23.4 nM and 49.7 nM and 23 nM and 24 nM and 38.4 nM and 37.6 nM and 35 nM and 67.5 nM and 70.9 nM and 46.6 nM and 44.1 nM and 25.3 nM and 42.6 nM and 18.7 nM and 31.1 nM and 26.8 nM and 30.5 nM and 40.9 nM | 31 ± 12 nM | > 25000 nM | 22300 nM | > 25000 nM | 20000 nM and 24900 nM and 22400 nM | 47 nM (2×) and 96.4 nM and 69.7 nM and 57.6 nM and 57.7 nM and 58.1 nM and 59.4 nM (2×) and 54.3 nM and 59.7 nM and 63.5 nM (2×) and 58 nM and 45.7 nM (2×) and 61 nM and 62.5 nM and 63 nM and 66 nM and 76.9 nM and 76.2 nM and 50.2 nM (2×) and 85.7 nM and 89.5 nM and 39.5 nM and 43.8 nM and 41.8 nM (2×) and 41.3 nM and 35.6 nM and 36.2 nM (2×) and 55 nM (2×) and 47.9 nM and 37.4 nM and 47.3 nM and 34.2 nM and 38 nM and 43.3 nM and 32.2 nM and 42.1 nM and 43.2 nM and 39.4 nM and 37.7 nM and 41.7 nM (2×) and 32.6 nM and 30.6 nM and 34.7 nM and 32.9 nM and 43.9 nM and 57.4 nM and 44.7 nM and 46.2 nM (5×) and 47.6 nM (2×) and 48.7 nM (3×) and 51.6 nM and 50.9 nM and 44.2 nM and 41.9 nM and 46.5 nM and 46.1 nM (2×) and 48.5 nM and 51.2 nM and 50.5 nM and 49.4 nM and 51.5 nM and 52.8 nM and 52.3 nM and 53.6 nM and 53.3 nM and 52.1 nM (2×) and 54.8 nM (2×) and 53.5 nM (2×) and 45.5 nM and 46.3 nM and 53.7 nM and 51.7 nM and 68.5 nM and 52.7 nM and 51.8 nM and 46.9 nM and 45.4 nM and 45.9 nM and 46.6 nM and 42.5 nM and 55.4 nM and 86.5 nM and 52.6 nM and 56.7 nM and 66.2 nM and 63.7 nM and 65.2 nM and 64.5 nM and 64.2 nM and 64.6 nM and 52.2 nM and 55.3 nM (2×) and 96.6 nM and 109 nM and 107 nM and 55.1 nM and 53 nM and 33.2 nM and 32.3 nM and 23.5 nM and 31.2 nM and 34 nM and 96.8 nM and 36 nM and 36.8 nM and 35.3 nM and 36.1 nM and 36.6 nM and 42.7 nM and 44.4 nM (2×) and 78.2 nM and 158 nM and 48.4 nM and 54 nM and 57.8 nM and 53.1 nM and 58.7 nM | 1260 nM | 48 ± 17 nM | – | – |
| Cc1ncsc1-c1ccc([C@H](COC(C)(C)CN2CCC(c3ccc4c(c3)n(C3CCCC3)c3nc(=O)c5c(Br)cccc5n43)CC2)NC(=O)[C@@H]2C[C@@H](O)CN2C(=O)[C@@H](NC(=O)C2(F)CC2)C(C)(C)C)cc1 [compound 28] | 16 ± 5 nM | 16.7 nM and 21.6 nM and 18.3 nM and 17.1 nM and 20.5 nM and 6.45 nM | 5.74 nM and 5.13 nM and 5.34 nM and 1.07 nM | 37.2 nM and 28.8 nM and 29.6 nM and 10.8 nM | 24 ± 11 nM | 17 ± 8 nM | 5 ± 2 nM | 14.7 nM and 15 nM and 30.1 nM and 11.8 nM | 3.23 nM and 5.17 nM and 7.73 nM and 5.43 nM | 34 nM and 37.9 nM and 38.6 nM and 39.5 nM and 28.8 nM and 36.1 nM and 40.6 nM and 27.9 nM and 35.6 nM and 32 nM | – | 35 ± 4 nM | 69 ± 4% | 76 ± 11% |
| CN1CCN(c2nc(=O)c3c(F)cccc3o2)CC1 [compound 17] | > 10000 nM | > 10000 nM | > 10000 nM | > 10000 nM | > 10000 nM | > 25000 nM | > 25000 nM | > 25000 nM | > 25000 nM | > 10000 nM | – | – | – | – |
